Experimental data published in patent US8080252B2, “Compounds and methods of modulating angiogenesis” (The Cleveland Clinic Foundation, priority 2006, dated 2011).
Read-outs that look alike come from different tables or passages of the source. Blank lines part the entries; values can stand above or below the compound they belong to. Non-standard residues stand in square brackets, D forms with d. No end group written: not given here. pY = N[C@@H](Cc1ccc(OP(=O)(O)O)cc1)C(=O)O

Legend:
β3 integrin = β3 integrin tyrosine phosphorylation (Tyr-747 and 759) in HUVECs, Western blot; format: cell-based, Human; details: serum starved HUVECs, 400 nm and 800 nm SU1498
Procedure: αvβ3 integrin is expressed on proliferating endothelial cells during angiogenesis and vascular remodeling and the blockade of αvβ3 integrin suppressed angiogenesis in several in vivo models. Therefore, we assessed whether the blockade of αvβ3 affected tyrosine phosphorylation of β3 subunit. […] Cells were also treated with non-immune IgG as control. These cells were washed and further induced with VEGF for 5 min at 37° C. Cell lysates were analyzed for phosphorylation of β3 integrin (Tyr-747 and 759). […] Basal level of β3 integrin tyrosine phosphorylation remains unaffected irrespective of different blocking antibody treatment. To further examine consequences of αvβ3 integrin blocking antibodies, cell lysates were analyzed for tyrosine phosphorylation of VEGFR-2 (Tyr-1175).
Cytoplasmic domains of integrin β subunits are highly conserved and represents region of structural homology between the various groups. […] Cell lysates were analyzed for the phosphorylation of β3 integrin. […]
Cells were lysed in immunoprecipitation lysis buffer (1% Noniodet P-40, 150 mM NaCl, 50 mM Tris-HCL (pH 7.8), 2 mM EDTA, 10 mM NaF, 10 mM Na2P2O7, 2 mM Na3VO4 10 μg/mL leupeptin, 4 μg/mL pepstatin and 0.1 U/mL aprotinin). […] Bands were analyzed by densitomeric analysis using Kodak 1D software and fold changes were indicated.

HUVECs = test: Cell migration assay of HUVECs on vitronectin, VEGF as agonist (Example 5); format: cell-based, Human; details: vitronectin as substrate
Procedure: (§1) To assess the role of Src-mediated β3 integrin tyrosine phosphorylation in αvβ3 integrin dependent EC migration, HUVECs transfected with various forms of Src were evaluated in migration assays using VEGF as an agonist and vitronectin as a substrate. […] To further evaluate the c-Src mediated β3 integrin cytoplasmic tyrosine motifs phosphorylation in αvβ3 integrin dependent endothelial cell migration, wild type and DiYF mouse lung microvascular endothelial cells were transfected with wild type, dominant negative and catalytically active form of c-Src and stimulated with VEGF (FIG. 23 B).
(§2) Transwell tissue culture inserts were coated with αvβ3 integrin ligand vitronectin for 24 h at 4° C. Endothelial cells were transfected with various forms of c-Src or treated with inhibitors and were trypsinized; then 1×10^5 cells were added into each well. Cells were allowed to migrate for 12 h and fixed with 70% methanol for 15 min and stained with Giemsa. The non-migrated cells adhered to the top surface were removed and three random 10× fields were photographed using an inverted phase contrast microscopy.

[1] = system: cells expressing αvβ3 integrin and VEGFR2; test: Angiogenesis of cells expressing αvβ3 integrin and VEGFR2 with stimulating peptides; format: cell-based; details: both in the presence and the absence of VEGF
αvβ3 integrin [2] = test: Fibrinogen binding assay, WT and DiYF mouse lung endothelial cells (FACS); format: cell-based; details: 20 ng/ml VEGF or 1 mM MnCl2
Procedure: To assess fibrinogen binding, semiconfluent wild type and DiYF mouse lung endothelial cells were serum starved for 4 h and further induced with 20 ng/ml VEGF-165, 20 ng/ml b-FGF or 1 mm MnCl2. Fluorescein isothiocyanate (FITC)-labeled fibrinogen was added at a final concentration of 200 nM for 45 min. […] Fluorescence-activated cell sorting (FACS) was performed using a FACS Calibur (Becton Dickinson, San Jose, Calif.) and data were analyzed using CellQuest software program.

αvβ3 integrin [3] = test: WOW-1 binding assay, WT and DiYF mouse lung endothelial cells (FACS); format: cell-based; details: 20 ng/ml VEGF or 1 mM MnCl2
Procedure: Wild type and DiYF mouse lung endothelial cells were serum starved for 4 h and further stimulated with 20 ng/ml VEGF-165, 20 ng/ml b-FGF or 1 mm MnCl2 separately. WoW-1 Fab was added at a final concentration of […], followed by addition of Fluorescein isothiocyanate (FITC) conjugated goat anti-mouse IgG at 10 μg/ml. After 30 min cells were fixed with 3.7% formaldehyde/PBS for 15 min, washed twice with 1×PBS and FACS was performed using a FACS Calibur (Becton Dickinson, San Jose, Calif.) instrument and data were analyzed using CellQuest software program.

[4] = system: mouse lung microvascular endothelial cells
Procedure: as §1, §2

[5] = system: HUVECs (Human Umbilical vascular endothelial cells); details: HUVECs on Matrigel, 8 h
From the text: The tube formation was observed using an inverted phase contrast microscope (Leica) and photographs were taken from each well. Using ImagePro software, the degree of tube formation was quantified by measuring the length of tubes in random fields.

[6] = system: mouse lung endothelial cells; details: 20 ng/ml VEGF, 8 h
Procedure: The formation of vascular tube-like structures by wild type and DiYF mouse lung endothelial cells were assessed on the basement membrane matrix preparation. Six well plates were coated with 0.5 ml of Matrigel according to the manufacturer's instructions. Wild type and DiYF mouse lung endothelial cells were detached from the tissue culture flasks using 20 mM EDTA. Cells were washed twice with sterile 1×PBS and seeded on Matrigel coated plate. Medium was supplemented with or without 20 ng/ml VEGF and further incubated at 37° C. for 8 h. The tube formation was observed using an inverted phase contrast microscope (Leica) and photographs were taken from each well. Using ImagePro software, the degree of tube formation was quantified by measuring the length of tubes in random fields.

αvβ3 integrin [7] = biological target: T1, αvβ3 integrin (Homo sapiens, UniProt P05106+P06756); test: WOW-1 binding assay in HUVECs (αvβ3 integrin activation, FACS); format: cell-based; details: 20 ng/mL
T1 construct: Semiconfluent HUVECs were serum starved for 4 h and further stimulated with 20 ng/mL VEGF-A165 or VEGFDΔNΔC; endogenous in cells; host or cells: HUVEC
Procedure: Semiconfluent HUVECs were serum starved for 4 h and further stimulated with 20 ng/mL VEGF-A165 or VEGFDΔNΔC. WOW-1 Fab was added to a final concentration of 30 μg/mL, followed by addition of FITC-conjugated goat anti-mouse IgG at 10 μg/mL. After 30 min cells were fixed with 3.7% formaldehyde in PBS for 15 min, washed twice with PBS, and fluorescence-activated cell sorting (FACS) was performed using a FACS Calibur (Becton Dickinson, San Jose, Calif.) and data were analyzed using CellQuest software.
Semiconfluent HUVECs were transfected with various forms of c-Src or Src++. SYF, SYF+Src cells were serum starved for 4 h and further stimulated with 20 ng/mL VEGF-A165 or b-FGF. WOW-1 Fab was added at a final concentration of 30 μg/mL, followed by addition of FITC-conjugated goat anti-mouse IgG at 10 μg/mL. After 30 min cells were fixed with 3.7% formaldehyde/PBS for 15 min, washed twice with PBS, and FACS analysis was performed as described above.

[8] = system: mouse lung endothelial cells; details: WT EC
Procedure: Transwell tissue culture inserts were coated with various integrin ligands for 24 h at 4° C. Both WT and DiYF lung endothelial cells were trypsinized and 1×10^5 cells were added into each well. The lower chamber contained varying concentrations of VEGF-A165 (0-20 ng/ml). Cells were allowed to migrate for 12 h and fixed with 3.7% formaldehyde/PBS for 15 min and stained with 0.5% crystal violet. The non-migrated cells adhered to the top surface were removed and three random 10× fields were photographed using Leica inverted phase contrast microscope.

VEGFR-2 = biological target: T2, VEGFR-2 (Mus musculus, UniProt P35918); test: VEGFR-2 phosphorylation time course in WT and DiYF mouse endothelial cells; format: cell-based; details: 20 ng/ml VEGF
T2 construct: Serum starved wild type and DiYF endothelial cells were also treated with 20 ng/ml VEGF for 0-60 mins; endogenous in cells; host or cells: primary mouse lung endothelial cells (WT and DiYF knock-in, C57/Bl6)
Procedure: Serum starved wild type and DiYF endothelial cells were also treated with 20 ng/ml VEGF for 0-60 mins. Cell lysates were analyzed by Western blot using anti-integrin β3 [pY^747], anti-integrin [pY^759], anti-p-VEGFR-2, anti-VEGFR-2, anti-p-ERK1/2, anti-ERK1/2, anti-p-Akt, anti-Akt, anti-p-P38MAPK and anti-MAPK antibody. The wild type and DiYF endothelial cells were lysed and equal proteins from total cell lysates were subjected SDS-PAGS and analyzed by western blot using anti-VEGFR-2 and anti-CD-31 antibody.

T2 sequence (P35918 20-1345): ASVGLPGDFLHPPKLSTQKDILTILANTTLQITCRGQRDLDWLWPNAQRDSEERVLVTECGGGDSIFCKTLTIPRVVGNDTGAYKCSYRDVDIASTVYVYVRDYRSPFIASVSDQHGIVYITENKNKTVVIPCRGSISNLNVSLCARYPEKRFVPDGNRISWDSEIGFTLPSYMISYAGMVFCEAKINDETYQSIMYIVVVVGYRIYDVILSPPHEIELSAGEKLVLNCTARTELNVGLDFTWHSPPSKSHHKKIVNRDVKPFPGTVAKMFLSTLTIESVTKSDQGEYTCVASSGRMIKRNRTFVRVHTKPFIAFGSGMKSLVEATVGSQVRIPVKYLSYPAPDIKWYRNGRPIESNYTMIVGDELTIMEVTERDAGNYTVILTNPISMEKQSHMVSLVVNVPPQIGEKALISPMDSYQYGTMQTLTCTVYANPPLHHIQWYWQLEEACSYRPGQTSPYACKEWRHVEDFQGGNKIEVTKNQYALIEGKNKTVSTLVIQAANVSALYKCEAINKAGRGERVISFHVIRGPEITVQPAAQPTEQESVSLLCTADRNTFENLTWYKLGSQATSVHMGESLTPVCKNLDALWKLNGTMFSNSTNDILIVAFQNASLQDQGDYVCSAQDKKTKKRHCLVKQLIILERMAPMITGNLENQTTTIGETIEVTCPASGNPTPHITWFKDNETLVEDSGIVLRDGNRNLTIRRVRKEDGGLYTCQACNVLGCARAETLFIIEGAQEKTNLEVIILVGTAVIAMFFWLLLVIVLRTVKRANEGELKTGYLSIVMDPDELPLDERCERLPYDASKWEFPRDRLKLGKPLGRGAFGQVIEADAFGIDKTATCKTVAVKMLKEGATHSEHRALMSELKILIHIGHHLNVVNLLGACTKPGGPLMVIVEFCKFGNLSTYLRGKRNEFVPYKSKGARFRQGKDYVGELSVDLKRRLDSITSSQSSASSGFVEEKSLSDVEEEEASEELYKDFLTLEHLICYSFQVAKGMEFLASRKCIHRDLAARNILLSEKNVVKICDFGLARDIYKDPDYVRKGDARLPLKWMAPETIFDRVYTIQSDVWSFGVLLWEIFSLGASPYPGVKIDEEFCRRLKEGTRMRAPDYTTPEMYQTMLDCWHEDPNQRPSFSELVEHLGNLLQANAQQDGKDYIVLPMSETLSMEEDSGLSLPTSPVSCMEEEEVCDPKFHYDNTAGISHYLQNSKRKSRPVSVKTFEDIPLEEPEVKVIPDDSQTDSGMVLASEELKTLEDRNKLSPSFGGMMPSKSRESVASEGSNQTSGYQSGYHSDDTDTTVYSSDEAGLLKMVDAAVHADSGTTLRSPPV
T1 sequence (P06756 31-1048): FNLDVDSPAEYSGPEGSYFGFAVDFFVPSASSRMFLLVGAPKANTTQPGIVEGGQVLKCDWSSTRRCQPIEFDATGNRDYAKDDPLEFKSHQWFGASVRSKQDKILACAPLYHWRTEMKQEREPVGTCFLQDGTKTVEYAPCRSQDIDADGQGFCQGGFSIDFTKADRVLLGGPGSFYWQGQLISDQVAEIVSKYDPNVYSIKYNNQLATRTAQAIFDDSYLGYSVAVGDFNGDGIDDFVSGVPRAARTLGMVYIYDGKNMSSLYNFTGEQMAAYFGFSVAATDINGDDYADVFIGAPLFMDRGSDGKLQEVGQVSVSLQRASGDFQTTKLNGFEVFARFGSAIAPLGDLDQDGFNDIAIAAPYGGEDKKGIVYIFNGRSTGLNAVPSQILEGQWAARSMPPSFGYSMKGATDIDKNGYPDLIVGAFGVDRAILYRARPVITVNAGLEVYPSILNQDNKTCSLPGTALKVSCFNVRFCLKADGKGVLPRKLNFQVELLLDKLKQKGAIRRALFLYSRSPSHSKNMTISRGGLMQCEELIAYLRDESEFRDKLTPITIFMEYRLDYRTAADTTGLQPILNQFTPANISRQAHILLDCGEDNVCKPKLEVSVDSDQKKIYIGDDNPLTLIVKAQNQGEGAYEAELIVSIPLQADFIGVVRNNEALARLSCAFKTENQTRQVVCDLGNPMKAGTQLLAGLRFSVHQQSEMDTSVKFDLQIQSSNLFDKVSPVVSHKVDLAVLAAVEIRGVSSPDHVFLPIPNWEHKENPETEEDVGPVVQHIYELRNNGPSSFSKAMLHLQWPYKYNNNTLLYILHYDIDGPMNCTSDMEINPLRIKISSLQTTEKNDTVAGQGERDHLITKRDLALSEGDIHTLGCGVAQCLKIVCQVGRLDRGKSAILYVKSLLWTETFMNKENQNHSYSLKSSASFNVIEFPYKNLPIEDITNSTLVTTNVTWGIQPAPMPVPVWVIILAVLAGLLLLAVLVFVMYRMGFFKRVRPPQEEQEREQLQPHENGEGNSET
T1 sequence (P05106 27-788): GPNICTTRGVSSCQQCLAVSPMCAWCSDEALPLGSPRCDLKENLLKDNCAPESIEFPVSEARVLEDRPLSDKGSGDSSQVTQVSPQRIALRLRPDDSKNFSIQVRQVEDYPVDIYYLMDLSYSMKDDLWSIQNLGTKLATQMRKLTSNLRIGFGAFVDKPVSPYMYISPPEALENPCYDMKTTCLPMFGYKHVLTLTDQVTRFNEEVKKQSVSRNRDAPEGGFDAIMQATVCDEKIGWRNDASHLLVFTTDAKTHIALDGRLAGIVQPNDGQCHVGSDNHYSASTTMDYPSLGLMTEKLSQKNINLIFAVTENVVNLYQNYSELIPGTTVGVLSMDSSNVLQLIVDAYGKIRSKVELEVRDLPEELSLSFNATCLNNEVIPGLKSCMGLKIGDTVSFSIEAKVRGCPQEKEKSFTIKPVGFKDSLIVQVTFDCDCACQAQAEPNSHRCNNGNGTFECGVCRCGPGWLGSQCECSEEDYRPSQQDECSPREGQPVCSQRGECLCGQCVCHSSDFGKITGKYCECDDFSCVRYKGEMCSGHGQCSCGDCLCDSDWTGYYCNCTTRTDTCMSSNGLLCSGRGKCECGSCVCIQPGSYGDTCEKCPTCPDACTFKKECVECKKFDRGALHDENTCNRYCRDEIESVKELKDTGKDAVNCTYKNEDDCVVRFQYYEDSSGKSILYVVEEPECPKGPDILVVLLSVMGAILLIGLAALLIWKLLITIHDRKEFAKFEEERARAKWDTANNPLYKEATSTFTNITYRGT

Compound: CC(C)c1cc(/C=C(\C#N)C(=O)NCCCc2ccccc2)cc(C(C)C)c1O [SU1498]
effect on VEGF induced β3 integrin cytoplasmic tyrosine residue phosphorylation (β3 integrin): significantly reduced
effect on EC migration triggered by VEGF (HUVECs): reduced EC migration triggered by VEGF

Compound: KEATSTFTNITYpRGT-COOH (KEATSTFTNIT[pY]RGT-OH; N-terminus assumed; SMILES CC[C@H](C)[C@H](NC(=O)[C@H](CC(N)=O)NC(=O)[C@@H](NC(=O)[C@H](Cc1ccccc1)NC(=O)[C@@H](NC(=O)[C@H](CO)NC(=O)[C@@H](NC(=O)[C@H](C)NC(=O)[C@H](CCC(=O)O)NC(=O)[C@@H](N)CCCCN)[C@@H](C)O)[C@@H](C)O)[C@@H](C)O)C(=O)N[C@H](C(=O)N[C@@H](Cc1ccc(OP(=O)(O)O)cc1)C(=O)N[C@@H](CCCNC(=N)N)C(=O)NCC(=O)N[C@H](C(=O)O)[C@@H](C)O)[C@@H](C)O; listed as Homo sapiens) [SEQ ID NO: 15, stimulating peptide; β3 integrin cytoplasmic peptide specific for tyrosine-759]
effect on angiogenesis [1]: promote angiogenesis

Compound: [Cl][Mn][Cl] [MnCl2, reference compound]
increase of fibrinogen binding (αvβ3 integrin [2]; DiYF EC): 17 fold
increase of fibrinogen binding (αvβ3 integrin [2]; WT EC): at least 40 fold
increase in WOW-1 binding (αvβ3 integrin [3]; DiYF EC): 14 fold
increase in WOW-1 binding (αvβ3 integrin [3]; WT EC): 30 fold

increase of WOW-1 binding to EC compared to resting cells (αvβ3 integrin [7]): 6 fold
maximum increase in VEGFR-2 phosphorylation over control (VEGFR-2; DiYF EC): 2.5 fold
maximum increase in VEGFR-2 phosphorylation over control (VEGFR-2; WT EC): 6 fold
Compound: VEGF
increase in endothelial cell migration ([4]; CA-Src transfected wild type endothelial cells): 3.5 fold
increase in endothelial cell migration ([4]; WT-Src transfected wild type endothelial cells): 2.5 fold
increase of fibrinogen binding (αvβ3 integrin [2]; DiYF EC): 3 fold
increase of fibrinogen binding (αvβ3 integrin [2]; WT EC): at least 6 fold
endothelial cell tube formation induced [5]: at least 450 μm/mm^2
increase in WOW-1 binding (αvβ3 integrin [3]; DiYF EC): 3.5 fold
increase in WOW-1 binding (αvβ3 integrin [3]; WT EC): 9 fold
effect on the length of the tubes ([6]; DiYF EC): little effect
increase in the length of the tubes ([6]; WT EC): about 3 fold
increase of migration compared to untreated EC ([8]; VEGF 5 ng/ml): 1.5 fold
increase of migration compared to untreated EC ([8]; VEGF 10 ng/ml): 2.5 fold
increase of migration compared to untreated EC ([8]; VEGF 20 ng/ml): 2.9 fold

Compound: YGRKKRRQRRRGKEATSTFTNITYpRGT-COOH (YGRKKRRQRRRGKEATSTFTNIT[pY]RGT-OH; N-terminus assumed; SMILES CC[C@H](C)[C@H](NC(=O)[C@H](CC(N)=O)NC(=O)[C@@H](NC(=O)[C@H](Cc1ccccc1)NC(=O)[C@@H](NC(=O)[C@H](CO)NC(=O)[C@@H](NC(=O)[C@H](C)NC(=O)[C@H](CCC(=O)O)NC(=O)[C@H](CCCCN)NC(=O)CNC(=O)[C@H](CCCNC(=N)N)NC(=O)[C@H](CCCNC(=N)N)NC(=O)[C@H](CCCNC(=N)N)NC(=O)[C@H](CCC(N)=O)NC(=O)[C@H](CCCNC(=N)N)NC(=O)[C@H](CCCNC(=N)N)NC(=O)[C@H](CCCCN)NC(=O)[C@H](CCCCN)NC(=O)[C@H](CCCNC(=N)N)NC(=O)CNC(=O)[C@@H](N)Cc1ccc(O)cc1)[C@@H](C)O)[C@@H](C)O)[C@@H](C)O)C(=O)N[C@H](C(=O)N[C@@H](Cc1ccc(OP(=O)(O)O)cc1)C(=O)N[C@@H](CCCNC(=N)N)C(=O)NCC(=O)N[C@H](C(=O)O)[C@@H](C)O)[C@@H](C)O; listed as Homo sapiens) [SEQ ID NO: 13, stimulating peptide]
effect on angiogenesis [1]: promote angiogenesis
